The text below walks through data of paper PMC4521925, “17β-Hydroxysteroid Dehydrogenase Type 2 Inhibition: Discovery of Selective and Metabolically Stable Compounds Inhibiting Both the Human Enzyme and Its Murine Ortholog” (PLoS ONE, 2015).

What is called IC50 is the midpoint of a concentration-inhibition curve. A word on the melting point: it is the temperature, or range, at which the solid turns liquid.

Data set [1] deals with T1, m17β-HSD2 (Mus musculus, UniProt P51658).
T1 construct: The microsomal fraction (m17β-HSD2) was obtained from mouse liver as described for h17β-HSD2; tissue Pharmacelsus GmbH (mouse livers); host or cells: mouse liver, microsomal fraction
T1 sequence (P51658 1-381): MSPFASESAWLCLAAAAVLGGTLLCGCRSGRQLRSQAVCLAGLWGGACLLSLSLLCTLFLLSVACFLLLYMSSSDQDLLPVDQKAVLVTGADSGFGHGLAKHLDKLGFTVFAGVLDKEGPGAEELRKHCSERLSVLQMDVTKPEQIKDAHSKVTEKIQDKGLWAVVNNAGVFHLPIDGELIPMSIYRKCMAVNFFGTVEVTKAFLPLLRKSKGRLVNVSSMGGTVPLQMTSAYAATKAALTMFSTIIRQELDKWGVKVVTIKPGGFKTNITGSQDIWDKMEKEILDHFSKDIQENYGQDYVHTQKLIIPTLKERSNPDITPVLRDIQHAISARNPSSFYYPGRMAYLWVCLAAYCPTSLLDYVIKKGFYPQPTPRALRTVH
The experiment in a line: Inhibition of m17β-HSD2 in cell-free assay. The format is biochemical. To be noted: for % inh. at 1 μM m17β-HSD2: mouse liver microsomal fraction, substrate E2 [500 nM], cofactor NAD+ [1500 μM], Table 1; for inhibition at 1 µM: read-out: % inh. at 1 μM m17β-HSD2. Here is the method:
(§1) h17β-HSD2, h17β-HSD1, m17β-HSD2 and m17β-HSD1 cell-free assays were performed similarly, by incubating enzyme, tritiated substrate, cofactor and inhibitor, according to described procedures.
The microsomal fraction (m17β-HSD2) was obtained from mouse liver as described for h17β-HSD2. Inhibitory activities were evaluated by a method identical to the one described for the human enzyme.
(§2) Inhibitory activities were evaluated following an established method with minor modifications. Briefly, the enzyme preparation was incubated with NAD^+ [1500 μM] in the presence of potential inhibitors at 37C in a phosphate buffer (50 mM) supplemented with 20% of glycerol and EDTA 1mM. Inhibitor stock solutions were prepared in DMSO. Final concentration of DMSO was adjusted to 1% in all samples. […] After 20 min, the incubation was stopped with HgCl2 and the mixture was extracted with ether. After evaporation, the steroids were dissolved in acetonitrile/water (45:55). […] Detection and quantification of the steroids were performed using a radioflow detector (Berthold Technologies, Bad Wildbad). […] Each value was calculated from at least two independent experiments.

Data set [2] concerns the target T2, h17β-HSD2 (Homo sapiens, UniProt P37059).
T2 sequence (P37059 1-387): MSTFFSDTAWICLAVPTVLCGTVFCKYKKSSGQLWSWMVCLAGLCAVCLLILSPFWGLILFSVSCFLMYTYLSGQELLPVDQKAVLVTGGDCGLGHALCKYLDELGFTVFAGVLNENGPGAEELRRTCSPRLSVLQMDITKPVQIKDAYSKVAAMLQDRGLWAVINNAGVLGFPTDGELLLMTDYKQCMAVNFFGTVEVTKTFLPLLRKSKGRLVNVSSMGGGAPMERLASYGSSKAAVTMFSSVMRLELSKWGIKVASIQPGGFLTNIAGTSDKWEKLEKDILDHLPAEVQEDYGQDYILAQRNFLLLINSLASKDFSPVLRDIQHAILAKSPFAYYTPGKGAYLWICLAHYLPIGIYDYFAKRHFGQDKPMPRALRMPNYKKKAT
As to the kind of experiment: Inhibition of h17β-HSD2 in cell-free assay. The format is biochemical. More on the design: from tissue; host or cells: human placenta, microsomal fraction. As to conditions: for s.f. (selectivity factor) = IC50(17β-HSD1)/IC50(17β-HSD2): human enzymes, cell-free; for inhibition at 1 µM: read-out: % inh. at 1 μM h17β-HSD2. Here is the method: as §1
(§3) Cytosolic (h17β-HSD1) and microsomal (h17β-HSD2) fractions were obtained from human placenta according to previously described procedures. Fresh tissue was homogenized and the enzymes were separated from the mitochondria, cell membrane. Nucleus and other rests by fractional centrifugation at 1000 g, 10.000 g and 150.000 g. The pellet fraction containing the microsomal h17β-HSD2 was used for the determination of h17β-HSD2 inhibition, while h17β-HSD1 was obtained after precipitation with ammonium sulfate from the cytosolic fraction for use of testing of h17β-HSD1 inhibition. Aliquots containing h17β-HSD1 or h17β-HSD2 were stored frozen.
as §2

Data set [3] deals with T3, h17β-HSD1 (Homo sapiens, UniProt P14061).
T3 construct: h17β-HSD1 was obtained after precipitation with ammonium sulfate from the cytosolic fraction; from tissue; host or cells: human placenta, cytosolic fraction
T3 sequence (P14061 1-328): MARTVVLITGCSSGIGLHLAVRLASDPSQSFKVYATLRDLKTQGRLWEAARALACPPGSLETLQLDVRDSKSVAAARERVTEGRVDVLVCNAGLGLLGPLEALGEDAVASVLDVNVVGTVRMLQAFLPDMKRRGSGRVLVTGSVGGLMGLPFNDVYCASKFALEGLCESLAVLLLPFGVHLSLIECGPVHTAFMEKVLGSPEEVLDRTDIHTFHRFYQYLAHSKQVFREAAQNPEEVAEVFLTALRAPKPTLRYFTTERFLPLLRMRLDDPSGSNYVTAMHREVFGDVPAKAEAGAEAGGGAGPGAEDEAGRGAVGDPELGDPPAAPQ
The experiment in a line: Inhibition of h17β-HSD1 in cell-free assay. As to conditions: human placental cytosolic fraction, substrate E1 [500 nM], cofactor NADH [500 μM]; for inhibition at 1 µM: read-out: % inh. at 1 μM h17β-HSD1. It counts as biochemical. Here is the method:
as §1, §3
The 17β-HSD1 inhibition assay was performed similarly to the h17β-HSD2 test. The human cytosolic enzyme was incubated with NADH [500 μM] while the mouse recombinant enzyme was reacted with NADPH [500 μM].Test compound and a mixture of unlabelled- and [^3H]-E1 (final concentration: 500 nM, 0.15 μCi) were added and mixed for 10 min at 37°C. Further treatment of the samples and HPLC separation was carried out as mentioned above for h17β-HSD2.

For `CN(C(=O)c1ccc(-c2ccccc2O)s1)c1cccc(O)c1` [Compound 1f], the “% inh. at 1 μM m17β-HSD2” value in data set [1] was found to be 18%.
Consider `COc1cccc(N(C)C(=O)c2ccc(-c3cccc(F)c3)cc2)c1` [Compound 13a, 3'-Fluoro-N-(3-methoxyphenyl)-N-methyl-[1,1'-biphenyl]-4-carboxamide], for which the melting point is 97 to 100 °C. For the same molecule, in data set [2], the IC50 amounted to 1 µM and the “s.f. (selectivity factor) = IC50(17β-HSD1)/IC50(17β-HSD2)” value came to 8. For the same molecule, in data set [3], the IC50 was found to be 8 µM. Moreover, the inhibition at 1 µM in data set [1] is 57%.
For `COc1cccc(CN(C)C(=O)c2cccc(-c3cccc(OC)c3)c2)c1` [Compound 4d], the “% inh. at 1 μM m17β-HSD2” value in data set [1] is “n.i. (n.i.: no inhibition, i.e., inhibition ≤10%)”.
As for `COc1cccc(N(C)C(=O)c2ccc(-c3ccc(OC)c(OC)c3)cc2)c1` [Compound 16a, 3',4'-Dimethoxy-N-(3-methoxyphenyl)-N-methyl-[1,1'-biphenyl]-4-carboxamide], the melting point lay within 153 to 156 °C. Besides, in data set [2], the IC50 stood at 0.52 µM and the “s.f. (selectivity factor) = IC50(17β-HSD1)/IC50(17β-HSD2)” value stood at 164. The same molecule displayed an IC50 in data set [3] of 85.5 µM. The inhibition at 1 µM in data set [1] was 52%.
Regarding `CN(Cc1cccc(O)c1)C(=O)c1cccc(-c2ccc(O)cc2)c1` [Compound 4f], the “% inh. at 1 μM m17β-HSD2” value in data set [1] is recorded as 22%.
Turning to `COc1ccc(-c2cccc(C(=O)N(C)c3cccc(OC)c3)c2)cc1` [Compound 4b], the “% inh. at 1 μM m17β-HSD2” value in data set [1] was determined as 11%.
The same measure, in the same setting: the value for `COc1cccc(N(C)C(=O)c2ccc(-c3cccc(F)c3)s2)c1` [Compound 1h] was “n.i. (n.i.: no inhibition, i.e., inhibition ≤10%)”.
In turn, `COc1ccc(-c2ccc(C(=O)N(C)c3ccc(OC)cc3)cc2)cc1` [Compound 12a, 4'-Methoxy-N-(4-methoxyphenyl)-N-methyl-[1,1'-biphenyl]-4-carboxamide] displayed a melting point of 129 to 132 °C. In addition, the inhibition at 1 µM in data set [2] is 19%. The inhibition at 1 µM in data set [3] was less than 10%. Further, the inhibition at 1 µM in data set [1] came to 62%.
For the molecule `COc1cccc(N(C)C(=O)c2ccc(-c3ccc(F)c(F)c3)cc2)c1` [Compound 18a, 3',4'-Difluoro-N-(3-methoxyphenyl)-N-methyl-[1,1'-biphenyl]-4-carboxamide], the values for the inhibition at 1 µM in data set [2] and in data set [3] were 31% and less than 10%, respectively.
For `CN(C(=O)c1cccc(-c2cccc(O)c2)c1)c1cccc(O)c1` [Compound 4c], in data set [1], the “% inh. at 1 μM m17β-HSD2” value is listed as “n.i. (n.i.: no inhibition, i.e., inhibition ≤10%)”.
For `COc1ccc(N(C)C(=O)c2ccc(-c3cccc(OC)c3)cc2)cc1` [Compound 11a, 3'-Methoxy-N-(4-methoxyphenyl)-N-methyl-[1,1'-biphenyl]-4-carboxamide], the inhibition at 1 µM in data set [2] was 27%; in data set [3], less than 10%; in data set [1] it was 58%.
Take `Cc1cccc(-c2ccc(C(=O)N(C)c3cccc(C)c3)s2)c1` [Compound 1b]: the “% inh. at 1 μM m17β-HSD2” value in data set [1] is reported as 42%.
For `COc1cccc(N(C)C(=O)c2ccc(-c3ccc(C#N)cc3)s2)c1` [Compound 1i], the “% inh. at 1 μM m17β-HSD2” value in data set [1] was “n.i. (n.i.: no inhibition, i.e., inhibition ≤10%)”.
In the case of `Cc1cccc(-c2ccc(C(=O)N(C)c3cccc(C)c3)cc2)c1` [Compound 3a], in data set [1], the inhibition at 1 µM worked out at 50%.
As for `COc1cccc(C(=O)N(C)c2ccc(-c3cccc(OC)c3)cc2)c1` [Compound 24a, 3-Methoxy-N-(3'-methoxy-[1,1'-biphenyl]-4-yl)-N-methylbenzamide], the inhibition at 1 µM in data set [2] was 11%; in data set [3], less than 10%.
As for `COc1cccc(N(C)C(=O)c2ccc(-c3ccccc3OC)s2)c1` [Compound 1d], in data set [1], the “% inh. at 1 μM m17β-HSD2” value is 19%.
As for `COc1cccc(N(C)C(=O)c2ccc(-c3ccccc3OC)cc2)c1` [Compound 9a, 2'-Methoxy-N-(3-methoxyphenyl)-N-methyl-[1,1'-biphenyl]-4-carboxamide], the inhibition at 1 µM in data set [2] was 50%; in data set [3] it was less than 10%; in data set [1], 33%.
